Experimental data published in patent publication US20230303540A1 (Merck Sharp & Dohme LLC, priority 2020, published 2023).

Molecular target: GST-tagged truncated human mutant G2019S LRRK2 (Homo sapiens, UniProt Q5S007, G2019S)
Test: LRRK2 G2019S Km ATP LanthaScreen assay
Assay type: biochemical
Conditions: 134 μM ATP (Km ATP), LRRKtide substrate, mean IC50 values; read-out: LRRK2 pIC50 (converted)
How it was run: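 Compound preincubated 15 min at room temperature with enzyme in pH 8.5 Tris buffer (10 mM MgCl2). Then a 90 min reaction at ambient temperature with 134 μM (Km) ATP and fluorescein-LRRKtide. EDTA stop, Tb anti-phospho antibody TR-FRET; […]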

SMILES | IC50 [nM]
CC1(O)C2CC1CN(c1cc3nc(Nc4cnn(C5CC5)c4Cl)ncc3cc1Cl)C2 (centres unmarked) [Ex-1.41, 3-{6-chloro-2-[(5-chloro-1-cyclopropyl-1H-pyrazol-4-y)amino]quinazolin-7-yl}-6-methyl-3-azabicyclo[3.1.1]heptan-6-ol] | 8.93
CN1CCC2CCN(c3cc4nc(Nc5cnn(C6CC6)c5Cl)ncc4cc3Cl)C2C1 (centres unmarked) [Ex-1.42, 6-chloro-N-(5-chloro-1-cyclopropyl-1H-pyrazol-4-yl)-7-(6-methyloctahydro-1H-pyrrolo[2,3-c]pyridin-1-yl)quinazolin-2-amine] | 25.6
CC1CN(C2CCN(c3cc4nc(Nc5cnn(C6CC6)c5Cl)ncc4cc3Cl)CC2)C1 [Ex-1.43, 6-chloro-N-(5-chloro-1-cyclopropyl-1H-pyrazol-4-yl)-7-[4-(3-methylazetidin-1-yl)piperidin-1-yl]quinazolin-2-amine] | 12.7
Clc1cc2cnc(Nc3cnn(C4CC4)c3Cl)nc2cc1N1CCC(N2CCCC2)CC1 [Ex-1.44, 6-chloro-N-(5-chloro-1-cyclopropyl-1H-pyrazol-4-yl)-7-[4-(pyrrolidin-1-yl)piperidin-1-yl]quinazolin-2-amine] | 22.3
Cc1c(Nc2ncc3ccc(N(C)C4COC4)cc3n2)cnn1C1CCOCC1 [Ex-1.47, N-7-methyl-N-2-[5-methyl-1-(oxan-4-yl)-1H-pyrazol-4-yl]-N-7-(oxetan-3-yl)quinazoline-2,7-diamine] | 38.8
Cc1c(Nc2ncc3ccc(N4C(=O)OC[C@@H]4C)cc3n2)cnn1C1CCOCC1 [Ex-1.48, (4S)-4-methyl-3-(2-{[5-methyl-1-(oxan-4-yl)-1H-pyrazol-4-yl]amino}quinazolin-7-yl)-1,3-oxazolidin-2-one] | 0.625
Cc1cc2cnc(Nc3cnn(C)c3C)nc2cc1N1CCN([C@]2(C)COC[C@@H]2O)CC1 [Ex-2.1, (3R,4R)-4-(4-(2-((1,5-Dimethyl-1H-pyrazol-4-yl)amino)-6-methylquinazolin-7-yl)piperazin-1-yl)-4-methyltetrahydrofuran-3-ol] | 0.576
COCC12CC(n3ncc(Nc4ncc5cc(Cl)c(N6C[C@H]7CC[C@@H](C6)[C@@]7(C)O)cc5n4)c3Cl)(C1)C2 [Ex-3.1, (Endo)-3-(6-chloro-2-((5-chloro-1-(3-(methoxymethyl)bicyclo[1.1.1]pentan-1-yl)-1H-pyrazol-4-yl)amino)quinazolin-7-yl)-8-methyl-3-azabicyclo[3.2.1]octan-8-ol] | 0.093
O[C@H]1COCC12CCN(c1cc3nc(Nc4cnn(C5CC5)c4Cl)ncc3cc1Cl)CC2 [Ex-3.2] | 1.06
O[C@@H]1COCC12CCN(c1cc3nc(Nc4cnn(C5CC5)c4Cl)ncc3cc1Cl)CC2 [Ex-3.3] | 17.2
C[C@]1(O)COCC12CCN(c1cc3nc(Nc4cnn(C5CC5)c4Cl)ncc3cc1Cl)CC2 [Ex-3.4] | 19.9
C[C@@]1(O)COCC12CCN(c1cc3nc(Nc4cnn(C5CC5)c4Cl)ncc3cc1Cl)CC2 [Ex-3.5] | 1.54
CC1(O)CCN(c2cc3nc(Nc4cnn([C@H]5CCN(C6COC6)C[C@@H]5F)c4Cl)ncc3cc2Cl)CC1 [Ex-3.6, 1-[6-chloro-2-({5-chloro-1-[(3S,4S)-3-fluoro-1-(oxetan-3-yl)piperidin-4-yl]-1H-pyrazol-4-yl}amino)quinazolin-7-yl]-4-methylpiperidin-4-ol] | 0.625
OC1CCN(c2cc3nc(Nc4cnn(C5CC5)c4)ncc3cc2Cl)CC1 [Ex-3.7, 1-{6-chloro-2-[(1-cyclopropyl-1H-pyrazol-4-yl)amino]quinazolin-7-yl} piperidin-4-ol] | 1.44
OC1CCN(c2cc3nc(Nc4cnn(C5CC5)c4Cl)ncc3cc2Cl)CC1 [Ex-3.8, 1-{6-chloro-2-[(5-chloro-1-cyclopropyl-1H-pyrazol-4-yl)amino]quinazolin-7-yl}piperidin-4-ol] | 2.53
CC1(O)CCN(c2cc3nc(Nc4cnn(C5CC5)c4)ncc3cc2Cl)CC1 [Ex-3.9, 1-{6-chloro-2-[(1-cyclopropyl-1H-pyrazol-4-yl)amino]quinazolin-7-yl}-4-methylpiperidin-4-ol] | 5.9
CC(C)(O)Cn1cc(Nc2ncc3cc(Cl)c(N4CCC(O)CC4)cc3n2)cn1 [Ex-3.10, 1-(6-chloro-2-{[1-(2-hydroxy-2-methylpropyl)-1H-pyrazol-4-yl]amino}quinazolin-7-yl)piperidin-4-ol] | 0.407
CC(C)(O)Cn1ncc(Nc2ncc3cc(Cl)c(N4CCC(O)CC4)cc3n2)c1Cl [Ex-3.11, 1-(6-chloro-2-{[5-chloro-1-(2-hydroxy-2-methylpropyl)-1H-pyrazol-4-yl]amino}quinazolin-7-yl)piperidin-4-ol] | 0.488

SMILES | IC50 [nM]
CC(C)(O)Cn1cc(Nc2ncc3cc(Cl)c(N4CCC(C)(O)CC4)cc3n2)cn1 [Ex-3.12, 1-(6-chloro-2-{[1-(2-hydroxy-2-methylpropyl)-1H-pyrazol-4-yl]amino}quinazolin-7-yl)-4-methyl-piperidin-4-ol] | 0.221
CC(C)(O)Cn1ncc(Nc2ncc3cc(Cl)c(N4CCC(C)(O)CC4)cc3n2)c1Cl [Ex-3.13, 1-(6-chloro-2-{[5-chloro-1-(2-hydroxy-2-methylpropyl)-1H-pyrazol-4-yl]amino}quinazolin-7-yl)-4-methylpiperidin-4-ol] | 1.54
Cc1c(Nc2ncc3cc(Cl)c(N4CCC(O)CC4)cc3n2)cnn1C1CC1 [Ex-3.14, 1-{6-chloro-2-[(1-cyclopropyl-5-methyl-1H-pyrazol-4-yl)amino]quinazolin-7-yl}piperidin-4-ol] | 0.106
COCC12CC(n3cc(Nc4ncc5cc(Cl)c(N6CCC7(CC6)COC(CO)C7)cc5n4)cn3)(C1)C2 (centres unmarked) [Ex-3.15, {8-[6-chloro-2-({1-[3-(methoxymethyl)bicyclo[1.1.1]pentan-1-yl]-1H-pyrazol-4-yl}amino)quinazolin-7-yl]-2-oxa-8-azaspiro [4.5]decan-3-yl}methanol] | 0.227
COCC12CC(n3cc(Nc4ncc5cc(Cl)c(N(C)C)cc5n4)cn3)(C1)C2 [Ex-3.18, 6-chloro-N-2-{1-[3-(methoxymethyl)bicyclo[1.1.1]pentan-1-yl]-1H-pyrazol-4-yl}-N-7-,N-7-dimethylquinazoline-2,7-diamine] | 1.95
CC1(n2ncc(Nc3ncc4cc(Cl)c(N5CCN(CCC#N)CC5)cc4n3)c2Cl)CC1 [Ex-3.20, 3-[4-(6-chloro-2-{[5-chloro-1-(1-methylcyclopropyl)-1H-pyrazol-4-yl]amino}quinazolin-7-yl)piperazin-1-yl]propanenitrile] | 1.07
CC1(N2CCN(c3cc4nc(Nc5cnn(C6CC(F)C6)c5Cl)ncc4cc3Cl)CC2)COC1 (centres unmarked) [Ex-3.21, 6-chloro-N-[5-chloro-1-(3-fluorocyclobutyl)-1H-pyrazol-4-yl]-7-[4-(3-methyloxetan-3-yl)piperazin-1-yl]quinazolin-2-amine] | 4.01
CC1(n2ncc(Nc3ncc4cc(Cl)c(N5CCN(C6COC6)CC5)cc4n3)c2Cl)CC1 [Ex-3.22, 6-chloro-N-[5-chloro-1-(1-methylcyclopropyl)-1H-pyrazol-4-yl]-7-[4-(oxetan-3-yl)piperazin-1-yl]quinazolin-2-amine] | 0.954
CC1(N2CCN(c3cc4nc(Nc5cnn(C6(C(F)(F)F)CC6)c5Cl)ncc4cc3Cl)CC2)COC1 [Ex-3.24, 6-chloro-N-{5-chloro-1-[1-(trifluoromethyl)cyclopropyl]-1H-pyrazol-4-yl}-7-[4-(3-methyloxetan-3-yl)piperazin-1-yl]quinazolin-2-amine] | 3.68
Clc1cc2cnc(Nc3cnn(C4CC4)c3Cl)nc2cc1N1CCc2[nH]ncc2C1 [Ex-3.25, 6-chloro-N-(5-chloro-1-cyclopropyl-1H-pyrazol-4-yl)-7-(1,4,6,7-tetrahydro-5H-pyrazolo[4,3-c]pyridin-5-yl) quinazolin-2-amine] | 1.21
CC1(O)CCN(c2cc3nc(Nc4cnn(C5CC5)c4Cl)ncc3cc2Cl)CC1 [Ex-3.26, 1-{6-chloro-2-[(5-chloro-1-cyclopropyl-1H-pyrazol-4-yl)amino]quinazolin-7-yl}-4-methylpiperidin-4-ol] | 5.63
Cc1c(Nc2ncc3cc(Cl)c(N4C[C@H]5CC[C@@H](C4)[C@@]5(C)O)cc3n2)cnn1C1CC1 [Ex-3.27, (8-syn)-3-{6-chloro-2-[(1-cyclopropyl-5-methyl-1H-pyrazol-4-yl)amino]quinazolin-7-yl}-8-methyl-3-azabicyclo[3.2.1] octan-8-ol] | 0.486
OC1C2CC1CN(c1cc3nc(Nc4cnn(C5CC5)c4)ncc3cc1Cl)C2 (centres unmarked) [Ex-3.28, 3-{6-chloro-2-[(1-cyclopropyl-1H-pyrazol-4-yl)amino]quinazolin-7-yl}-3-azabicyclo [3.1.1]heptan-6-ol] | 4.52
CN(C)c1cc2nc(Nc3cnn(C4CC4)c3)ncc2cc1Cl [Ex-3.29, 6-chloro-N-2-(1-cyclopropyl-1H-pyrazol-4-yl)-N-7-,N-7-dimethylquinazoline-2,7-diamine] | 8.79
CC(C)(O)Cn1ncc(Nc2ncc3cc(Cl)c(N4C[C@H]5CC[C@@H](C4)[C@@]5(C)O)cc3n2)c1Cl [Ex-3.30, (8-syn)-3-(6-chloro-2-{[5-chloro-1-(2-hydroxy-2-methylpropyl)-1H-pyrazol-4-yl]amino}quinazolin-7-yl)-8-methyl-3-azabicyclo[3.2.1] octan-8-ol] | 5.09
COCC12CC(n3cc(Nc4ncc5cc(Cl)c(N6C[C@H]7CC[C@@H](C6)[C@@]7(C)O)cc5n4)cn3)(C1)C2 [Ex-3.31, (8-syn)-3-[6-chloro-2-({1-[3-(methoxymethyl)bicyclo[1.1.1]pentan-1-yl]-1H-pyrazol-4-yl}amino)quinazolin-7-yl]-8-methyl-3-azabicyclo[3.2.1]octan-8-ol] | 2.08
CC(C)(O)Cn1cc(Nc2ncc3cc(Cl)c(N4C[C@H]5CC[C@@H](C4)[C@@]5(C)O)cc3n2)cn1 [Ex-3.32, (8-syn)-3-(6-chloro-2-{[1-(2-hydroxy-2-methylpropyl)-1H-pyrazol-4-yl]amino}quinazolin-7-yl)-8-methyl-3-azabicyclo[3.2.1]octan-8-ol] | 0.393
